Measured values: US6080859A, “Pyrroloindole derivatives and intermediates in producing the same” (priority 1997, dated 2000)
Structures can show the parent of a compound that is named as a salt. Where two headings read alike, the source gives them in different places.

Columns and labels:
[1] = Decomposition reaction under chemical conditions (half life in buffer solution of pH 7.4, HPLC); format: physicochemical; settings: ph 7.4 buffer/dma, pH 7.4 buffer / N,N-dimethylacetamide 50 v/v%, 37° C.
Description: Decomposition reaction under chemical conditions:
A buffer solution of pH 7.4 was prepared by mixing suitably an aqueous 0.1 M citric acid solution and an aqueous 0.2 M disodium hydrogenphosphate solution. The buffer solution was diluted tenfold with water. This buffer solution was further dissolved in N,N-dimethylacetamide at a concentration of 50 v/v%, and its pH was adjusted to 7.4 by adding suitable amount of aqueous 0.1 M citric acid solution to prepare a buffer solution. The test compounds were dissolved respectively in the buffer solution at a concentration of 5 μM to prepare the test sample solutions. The test sample solutions were placed respectively in a glass vial, and the glass vials were kept at 37° C. in a thermostat. The change of the concentration of remaining test compounds with lapse of time was determined quantitatively intermittently by high performance liquid chromatography (HPLC) to measure the half life (t1/2 : hours).

[2] = tested on: M5076/ADR cells (adriamycin-resistant strain); assay: Evaluation with mouse bearing M5076/ADR cells (adriamycin-resistant strain) transplanted subcutaneously; format: in vivo, mouse (female, BDFI strain); settings: 1.0 mg/kg, single injection into tail vein nine days after transplantation; tumor weighed 13 days after injection
Description: Evaluation with mouse bearing M5076/ADR cells (adriamycin-resistant strain) transplanted subcutaneously:
M5076/ADR cells (adriamycin-resistant strain) were transplanted subcutaneously at the axillary region of female mice (BDFI strain, 8 week age) in an amount of 3.0×10^6 cells for an individual mouse. Nine days after the transplantation, the test compound solution was injected once into the tail vein. After 13 days from the injection, the tumor was excised and weighed. The antitumor activity was evaluated by the ratio (T/C) of the average tumor weight (T) of the administrated group to the average tumor weight (C) of control group to which solvent was administrated.

[3] = read-out: Half life (t1/2) (converted)
[4] = * Average of the half lives of the diastereomers, read-out: Half life (t1/2), average of the half lives of the diastereomers (converted)

Compound | half-life at 5 µM [1, 3] | half-life at 5 µM [1, 4] | T/C (ratio of average tumor weight of administrated group to control group) [2]
COC(=O)c1c(C(F)(F)F)[nH]c2c(OC(=O)N3CCC[C@H]3CN3CCCC3)cc3c(c12)[C@H](CCl)CN3C(=O)c1cc2cc(NC(=O)c3cc4cccc(OC)c4o3)ccc2[nH]1 [Example 3, methyl (1S)-chloromethyl-5-{[(2S)-(pyrrolidin-l-ylmethyl)pyrrolidin-1-ylcarbonyl]oxy}-3-[5-(7-methoxybenzofuran-2-ylcarbonyl)amino-1H-indol-2-ylcarbonyl]-7-trifluoromethyl-1,2,3,6-tetrahydropyrrolo[3,2-e]indole-8-carboxylate] | 1 h | – | –
COC(=O)c1c(C(F)(F)F)[nH]c2c(OC(=O)N3CCOCC3CO)cc3c(c12)[C@H](CCl)CN3C(=O)c1cc2cc(NC(=O)c3cc4cccc(OC)c4o3)ccc2[nH]1 (mixture of isomers) [Example 7, methyl (1S)-chloromethyl-5-{[(3RS)-hydroxymethylmorpholin-4-ylcarbonyl]oxy}-3-[5-(7-methoxybenzofuran-2-ylcarbonyl)amino-1H-indol-2-ylcarbonyl]-7-trifluoromethyl-1,2,3,6-tetrahydropyrrolo[3,2-e]indole-8-carboxylate] | – | 1.7 h | –
COC(=O)c1c(C(F)(F)F)[nH]c2c(OC(=O)N3CCN(C)CC3CO)cc3c(c12)[C@H](CCl)CN3C(=O)c1cc2cc(NC(=O)c3cc4cccc(OC)c4o3)ccc2[nH]1 (stereo partly drawn) [Example 5, hydrochloride of methyl (1S)-chloromethyl-5-{[(2RS)-hydroxymethyl-4-methylpiperazin-1-ylcarbonyl]oxy}-3-[5-(7-methoxybenzofuran-2-ylcarbonyl)amino-1H-indol-2-ylcarbonyl]-7-trifluoromethyl-1,2,3,6-tetrahydropyrrolo[3,2-e]indole-8-carboxylate] | – | 1.7 h | 0.01
COC(=O)c1c(C(F)(F)F)[nH]c2c(OC(=O)N3CCN(C)CC3CCO)cc3c(c12)[C@H](CCl)CN3C(=O)c1cc2cc(NC(=O)c3cc4cccc(OC)c4o3)ccc2[nH]1 (stereo partly drawn) [Example 6, hydrochloride of methyl (1S)-chloromethyl-5-{[(2RS)-hydroxyethyl-4-methylpiperazin-1-ylcarbonyl]oxy}-3-[5-(7-methoxybenzofuran-2-ylcarbonyl)amino-1H-indol-2-ylcarbonyl]-7-trifluoromethyl-1,2,3,6-tetrahydropyrrolo[3,2-e]indole-8-carboxylate] | – | 5.8 h | 0.02
COC(=O)c1c(C(F)(F)F)[nH]c2c(OC(=O)N3CCCCC3CO)cc3c(c12)[C@H](CCl)CN3C(=O)c1cc2cc(NC(=O)c3cc4cccc(OC)c4o3)ccc2[nH]1 (mixture of isomers) [Example 4, methyl (1S)-chloromethyl-5-{[(2RS)-hydroxymethylpiperidin-1-ylcarbonyl]oxy}-3-[5-(7-methoxybenzofuran-2-ylcarbonyl)amino-1H-indol-2-ylcarbonyl]-7-trifluoromethyl-1,2,3,6-tetrahydropyrrolo[3,2-e]indole-8-carboxylate] | – | > 8 h | 0.01
COC(=O)c1c(C(F)(F)F)[nH]c2c(OC(=O)N3C[C@H](O)C[C@H]3CO)cc3c(c12)[C@H](CCl)CN3C(=O)c1cc2cc(NC(=O)c3cc4cccc(OC)c4o3)ccc2[nH]1 [Example 2, methyl (1S) -chloromethyl-5-{[(4R)-hydroxy-(2S)-hydroxymethylpyrrolidin-1-ylcarbonyl]oxy}-3-[5-(7-methoxybenzofuran-2-ylcarbonyl)amino-1H-indol-2-ylcarbonyl]-7-trifluoromethyl-1,2,3,6-tetrahydropyrrolo[3,2-e]indole-8-carboxylate] | > 8 h | – | –
COC(=O)c1c(C(F)(F)F)[nH]c2c(OC(=O)N3CCC[C@H]3CO)cc3c(c12)[C@H](CCl)CN3C(=O)c1cc2cc(NC(=O)c3cc4cccc(OC)c4o3)ccc2[nH]1 [Example 1, methyl (1S)-chloromethyl-5-{[(2S)-hydroxymethylpyrrolidin-1-ylcarbonyl]oxy}-3-[5-(7-methoxybenzofuran-2-ylcarbonyl)amino-1H-indol-2-ylcarbonyl]-7-trifluoromethyl-1,2,3,6-tetrahydropyrrolo[3,2-e]indole-8-carboxylate] | > 8 h | – | –
